Measurements from PubChem BioAssay (NCI).
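Grown in 96-well plates, cells were treated for 48 hours with each compound at five concentrations. Insufficient inhibition: endpoint recorded as highest concentration tested. TGI: total growth inhibition.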

Key:
Assay in all cases: inhibition of tumour cell growth, NCI panel, 48 h
[1] = system: CCRF-CEM leukemia
[2] = system: MDA-N
[3] = system: HL-60(TB) leukemia
[4] = system: A498 renal
[5] = system: UACC-257 melanoma
[6] = system: UACC-62 melanoma
[7] = system: HOP-92 NSCLC
[8] = system: SR leukemia
[9] = system: HT29 colon
[10] = system: UO-31 renal
[11] = system: DU-145 prostate
[12] = system: CAKI-1 renal
[13] = system: SNB-75 CNS
[14] = system: HCT-116 colon
[15] = system: U251 CNS
[16] = system: OVCAR-3 ovarian
[17] = system: IGROV1 ovarian
[18] = system: SK-MEL-28 melanoma
[19] = system: HOP-62 NSCLC
[20] = system: PC-3 prostate

SMILES	TGI [1] [µM]	TGI [2] [µM]	TGI [3] [µM]	TGI [4] [µM]	TGI [5] [µM]	TGI [6] [µM]	TGI [7] [µM]	TGI [8] [µM]	TGI [9] [µM]	TGI [10] [µM]	TGI [11] [µM]	TGI [12] [µM]	TGI [13] [µM]	TGI [14] [µM]	TGI [15] [µM]	TGI [16] [µM]	TGI [17] [µM]	TGI [18] [µM]	TGI [19] [µM]	TGI [20] [µM]
O=C1CSC(c2ccccc2O)N1c1ccc(-n2c(-c3ccccc3)nc3ccccc3c2=O)cc1 (stereo not given)	> 100	> 100	> 100	> 100	82.2	90.3	76.5	> 100	> 100	77.2	> 100	> 100	> 100	35.9	> 100	41.5	93.9	> 100	77.5	58.7
Cc1ccc2nc(NS(=O)(=O)c3cc(C)c(Cl)cc3S)[nH]c2c1	69.8	> 100	72.7	> 100	> 100	> 100	> 100	> 100	> 100	> 100	> 100	> 100	> 100	> 100	> 100	> 100	> 100	> 100	> 100	> 100
COc1ccc2nc3ccc(OC)cc3c(SCCCl)c2c1	16	> 100	> 21.1	> 91.5	> 100	> 77.6	> 42.2	15.6	> 52.4	> 100	> 65	66.8	> 96.8	> 43.5	> 100	> 100	> 100	> 100	> 78.3	> 100
CC(C)[Si]1(C(C)C)OCC2OC(n3ccc(=O)[nH]c3=O)C([Se]c3ccccc3)C2O[Si](C(C)C)(C(C)C)O1 (stereo not given)	> 24.4	12.7	> 25.4	18.9	13.9	14.8	13	27.1	3.99	21.5	24.7	24.3	2.42	7.16	4.87	9.73	9.49	12.5	25.2	11.9
O=[N+]([O-])/C(Cl)=C(/C(Cl)=C(Cl)Cl)N1CCOCC1	7.23	6.77	5.23	7.79	9.3	5.62	4.88	6.42	14.2	12.8	26.9	12.7	17.9	7.51	27	4.86	3.88	34.3	2.5	19.3
O=C(NCCNCCNC(=O)c1cc(-c2ccccc2)nc2ccccc12)c1cc(-c2ccccc2)nc2ccccc12	> 100	3.42	5	6.54	3.92	5.77	6.17	5.37	3.24	6.94	6.56	24.1	3.99	3.18	4.07	5.73	7.25	3.25	3.26	8.88
CC(C)(C)OC(=O)N1CCCC1C(=O)NC(c1ccccc1)c1ccccc1 (stereo not given)	> 100	> 100	> 100	> 100	> 100	> 100	> 100	> 100	> 100	> 100	> 100	> 100	> 100	> 100	> 100	> 100	> 100	> 100	> 100	> 100
Cc1c(/C=N/NC(=S)N2CCCCC2)c(=O)n(-c2ccccc2)n1C	> 100	> 100	95	> 100	> 100	> 100	> 100	> 100	> 100	> 100	> 100	> 100	> 100	> 100	> 100	> 100	> 100	> 100	> 100	> 100
CC(C)(C)O/N=C/c1cc(NC(=S)c2ccsc2)ccc1Cl	57.3	29.8	39	24.9	25.2	28.8	37.7	13.9	26.1	24.6	17.1	30.2	77.4	26.5	43.8	28.1	34.9	39.2	29.4	26.1
O=[N+]1[C@H](c2ccccc2)[C@H](c2ccccc2)N1[O-]	36.3	30.7	5.48	67.3	26.3	32.3	30.2	37.7	33.1	28.5	30.1	19.7	37.2	30.6	33.5	30.1	26.8	30.5	40.7	31.6
CN=c1sc2nc(C#N)c(C#N)nc2n1C	> 100	> 58.3	> 40.4	35.2	> 100	40.6	37.7	> 79.6	26	51.3	> 85.4	60.3	51.4	36	44.9	72.1	53.4	> 85	42.1	> 100
O=c1[nH][nH]c(=O)c2c1ccc1oc3ccccc3c12	> 100	> 100	> 100	> 100	> 100	> 100	> 100	> 100	> 100	> 100	> 100	> 100	> 100	> 100	> 100	> 100	> 100	> 100	> 100	> 100
CC1=NN(c2nc(N)nc(/C(C#N)=C\c3ccc(-c4ccc([N+](=O)[O-])cc4)o3)n2)C(C)(C)C1	> 100	> 100	94.7	> 100	> 100	> 100	> 100	> 100	> 100	> 100	> 100	> 100	51.6	> 100	> 100	> 100	> 100	> 100	67.5	> 100
CC(C)(C)OC(=O)CCCCCNC(=O)CCCCCNC(=O)CCC(CN(CC(=O)OCc1ccccc1)CC(=O)OCc1ccccc1)N(CC(=O)OCc1ccccc1)CC(=O)OCc1ccccc1 (stereo not given)	> 100	> 100	> 100	> 100	> 100	> 100	> 100	> 100	> 100	> 100	> 100	> 100	81.9	> 100	> 100	> 100	> 100	> 100	> 100	> 100
COc1cc2cc(C(=O)N3CC(CCl)c4ccc([N+](C)(C)Cc5ccccc5[N+](=O)[O-])cc43)[nH]c2c(OC)c1OC (stereo not given)	> 23.8	6.49	> 100	1.37	6.75	2.76	> 29.8	4.39	> 21.8	5.17	> 100	14.5	24.7	> 100	26.4	> 24.6	17.7	11.4	18.1	25.9
C=CCN1CCC(c2cc(C(=O)OCC)[nH]c2-c2cc(C)no2)C1=O (stereo not given)	> 100	> 100	> 100	> 100	> 100	> 100	> 100	> 100	> 100	> 100	> 100	> 100	> 100	> 100	> 100	> 100	> 100	> 100	> 100	> 100
